Data published in US20060263302A1, “Systemic oxygenation via gastric perfusion with perfluorocarbon (PFC)” (Thomas Jefferson University, priority 2005, published 2006).
Where “and” joins values, the source holds several entries; their conditions need not be identical. Equal values may be shown once.

How the values were obtained:
[1] = tested on: Sus scrofa pigs; experiment: Peritoneal perfusion with perfluorocarbon in pigs made hypoxic by ventilation with subatmospheric oxygen; arterial blood gases; type: in vivo; details: for Fitted mean PaO2 / Observed mean PaO2: pigs, peritoneal perfusion; for Fitted treatment effect: mean PaO2 difference perfluorocarbon versus saline / Observed treatment effect: mean PaO2 difference perfluorocarbon versus saline: oxygenation on
Method: Animals: Fifteen Sus scrofa pigs weighing 45-55 kg were used for the experiments. All experiments were approved by the Thomas Jefferson University Institutional Animal Care and Use Committee. The care and handling of all animals were in accord with United States Department of Agriculture guidelines.
Surgical procedure: The animals were induced with Telazol (Fort Dodge Animal Health, Fort Dodge, Iowa) 5 mg/kg injected intramuscularly (IM), after which an intravenous catheter was placed in an ear vein and 30 mg of Propofol (Baxter, Irvine, Calif.) was injected intravenously (IV). The animals were then intubated with a 7.5 mm internal diameter endotracheal tube (Mallinckrodt Inc., St. Louis, Mo.) and maintained with isoflurane inhalation anesthesia, using intermittent Propofol injections for any evidence of discomfort or awakening. The animals were placed on a Harvard Apparatus Dual Phase Control Respirator Pump (South Natick, Mass.) mechanical ventilator with a tidal volume of 10-15 ml/kg and a rate of 12-15 breaths per minute. Prior to subjecting the animal to hypoxia, the respiratory rate was occasionally adjusted in an effort to maintain a neutral pH, as determined by arterial blood gas measurements. Electrocardiography leads were placed in the standard 3-lead positions on each animal, starting at the time of induction, and continuously monitored throughout the experiment. Oxygen saturation was also measured with a Vet/Ox Plus 4700 (SDI, Waukesha, Wis.) pulse oxymeter with the probe placed on the animal's tongue. Once under general anesthesia and in the supine position, a cervical cut down was performed through which a Swan-Ganz right heart catheter (Edwards Lifesciences, Irvine, Calif.) was placed via the internal jugular vein and an 18-gauge angiocatheter was placed in the common carotid artery for access to the central arterial system for blood pressure monitoring and arterial blood gas measurements. Both of these lines were transduced using a pressure monitoring kit with a TruWave pressure transducer (Edwards Lifesciences, Irvine, Calif.) and connected to a Hewlett-Packard Monitor 78834A (Palo Alto, Calif.) system for monitoring the systemic and pulmonary arterial pressures and the central venous pressure.
After placement of the arterial and venous lines, a lower midline laparotomy was performed. A 28 French venous return cannula catheter (Edwards Lifesciences, Irvine, Calif.) was placed in the left paracolic gutter and brought out through a separate site in the left lower quadrant and sutured in place using a number 1 Prolene suture (Ethicon, Sommerville, N.J.). A 42 French venous return cannula (Edwards Lifesciences, Irvine, Calif.) was placed in an identical manner on the right side, with the tip lodged above the dome of the liver. The abdomen was then closed in a single layer with a running number I Prolene. In the first two animals in each experimental group, an additional 14 French catheter (Edwards Lifesciences, Irvine, Calif.) was placed near the midline for pressure monitoring purposes and was maintained in a vertical attitude, attached to a ruler such that the height of the column of fluid could be easily monitored. Peritoneal pressure measurements in centimeters of H2O were calculated by multiplying column height by the correction factor 1.67 (specific gravity of trans-bis-perfluorobutyl ethylene).
Hypoxia circuit: A Matrx anesthesia machine (Orchard Park, N.Y.) was used for blending gasses and isoflurane inhaled anesthetic. Pure nitrogen, rather than filtered room air, was mixed with pure oxygen to achieve subatmospheric concentrations of oxygen. The animal was ventilated using a standard bifurcated anesthesia circuit to maintain unidirectional flow of gasses. A Datex machine (Puritan-Bennett Corporation, Overland Park, Kans.) was attached to the ventilation circuit and allowed real-time monitoring of the oxygen and anesthetic agent concentration. […]

[2] = Properties of perfluorocarbon (physical characteristics of neat F44E); type: physicochemical
Excerpt: Perfluorocarbon: Seventy liters of neat perfluorocarbon F44E (trans-bis-perfluorobutyl ethylene) were provided as a generous gift from Neuron Therapeutics, Inc (Malvern, Pa.). This perfluorocarbon is clear, colorless, odorless, immiscible with water or blood and has the physical characteristics listed in Table 1.

- specific gravity (correction factor for peritoneal pressure) [2]: 1.67
- Carbon dioxide capacity ([2]; neat perfluorocarbon F44E): 200 vol %
- Oxygen capacity ([2]; neat perfluorocarbon F44E): 50 vol %
- Specific gravity ([2]; neat perfluorocarbon F44E): 1.668 g/cc
SMILES: FC(F)(F)C(F)(F)C(F)(F)C(F)(F)/C=C/C(F)(F)C(F)(F)C(F)(F)C(F)(F)F [perfluorocarbon, trans-bis-perfluorobutyl ethylene]
- Fitted mean PaO2 ([1]; FiO2 10%, O2 Off): 25.7 mm Hg
- Observed mean PaO2 ([1]; FiO2 10%, O2 Off): 28.0 mm Hg
- Fitted mean PaO2 ([1]; FiO2 10%, O2 On): 35.2 mm Hg
- Observed mean PaO2 ([1]; FiO2 10%, O2 On): 36.7 mm Hg
- Observed mean PaO2 ([1]; FiO2 10%, O2 On, listed as oxygenated perfluorocarbon): 36.7±8.4 mm Hg
- Fitted mean PaO2 ([1]; FiO2 12%, O2 Off): 38.5 mm Hg
- Observed mean PaO2 ([1]; FiO2 12%, O2 Off): 37.1 mm Hg
- Fitted mean PaO2 ([1]; FiO2 12%, O2 On): 44.5 mm Hg
- Observed mean PaO2 ([1]; FiO2 12%, O2 On): 43.8 mm Hg
- Fitted mean PaO2 ([1]; FiO2 14%, O2 Off): 51.3 mm Hg
- Observed mean PaO2 ([1]; FiO2 14%, O2 Off): 48.8 mm Hg
- Fitted mean PaO2 ([1]; FiO2 14%, O2 On): 53.9 mm Hg
- Observed mean PaO2 ([1]; FiO2 14%, O2 On): 55.3 mm Hg
- Observed mean PaO2 ([1]; FiO2 14%, O2 On, listed as oxygenated perfluorocarbon): 55.3±7.6 mm Hg and 55.3 mm Hg
- arterial oxygen saturation (SaO2) ([1]; FiO2 14%, oxygenated perfluorocarbon perfusion (73% with oxygenated saline)): 89%
- Fitted mean PaO2 ([1]; FiO2 16%, O2 Off): 64.2 mm Hg
- Observed mean PaO2 ([1]; FiO2 16%, O2 Off): 63.7 mm Hg
- Fitted mean PaO2 ([1]; FiO2 16%, O2 On): 63.3 mm Hg
- Observed mean PaO2 ([1]; FiO2 16%, O2 On): 64.4 mm Hg
- Fitted mean PaO2 ([1]; FiO2 18%, O2 Off): 77.0 mm Hg
- Observed mean PaO2 ([1]; FiO2 18%, O2 Off): 79.8 mm Hg
- Fitted mean PaO2 ([1]; FiO2 18%, O2 On): 72.7 mm Hg
- Observed mean PaO2 ([1]; FiO2 18%, O2 On): 68.7 mm Hg
- Observed mean PaO2 ([1]; FiO2 18%, O2 On, listed as oxygenated perfluorocarbon): 68.7±10.4 mm Hg
- group-by-oxygenation interaction effect ([1]; average across FiO2 values): about 6.4 mmHg
- average mean PaO2 difference perfluorocarbon versus saline ([1]; oxygenation off, across all FiO2 values): 6.4 mmHg
- Fitted treatment effect: mean PaO2 difference perfluorocarbon versus saline ([1]; FiO2 10%): 9.6 mmHg
- Observed treatment effect: mean PaO2 difference perfluorocarbon versus saline ([1]; FiO2 10%): 8.1 mmHg
- Fitted treatment effect: mean PaO2 difference perfluorocarbon versus saline ([1]; FiO2 12%): 11.4 mmHg
- Observed treatment effect: mean PaO2 difference perfluorocarbon versus saline ([1]; FiO2 12%): 12.4 mmHg
- Fitted treatment effect: mean PaO2 difference perfluorocarbon versus saline ([1]; FiO2 14%): 13.2 mmHg
- Observed treatment effect: mean PaO2 difference perfluorocarbon versus saline ([1]; FiO2 14%): 15.9 mmHg
- Fitted treatment effect: mean PaO2 difference perfluorocarbon versus saline ([1]; FiO2 16%): 15.0 mmHg
- Observed treatment effect: mean PaO2 difference perfluorocarbon versus saline ([1]; FiO2 16%): 18.2 mmHg
- Fitted treatment effect: mean PaO2 difference perfluorocarbon versus saline ([1]; FiO2 18%): 16.8 mmHg
- Observed treatment effect: mean PaO2 difference perfluorocarbon versus saline ([1]; FiO2 18%): 8.2 mmHg
- arterial or venous partial pressure of carbon dioxide (PaCO2 or PvCO2), difference between groups ([1]; perfluorocarbon versus saline, irrespective of FiO2): No statistically significant difference
